This is an account of results in ChEMBL document CHEMBL6071156 (Eur J Med Chem, 2024).

Active and inactive are the calls of the source. The rule behind the calls is not given here.

In data set [1] the test system is Chikungunya virus. The data set is described as follows: Antiviral activity against CHIKV S27 in green monkey Vero 76 cells assessed as reduction in virus-induced cytopathic effect. Format: functional, organism-based. Conditions: S27, Vero 76.
The nature of data set [2]: Cytotoxicity against green monkey Vero 76 cells assessed as reduction in cell viability. The format is toxicity, cell-based. Conditions: chlorocebus sabaeus.
A short description of data set [3]: Selective index, ratio of ratio of CC50 for cytotoxicity against green monkey Vero 76 cells to EC50 for antiviral activity against CHIKV S27 in green monkey Vero 76 cells assessed as reduction. Conditions: read-out: Selectivity Index. Format: toxicity, cell-based.
Data set [4] is described as follows: Metabolic stability in human liver S9 fraction assessed as intrinsic clearance by HPLC-MS/MS analysis. The format is ADME, subcellular.
Data set [5] in a line: Metabolic stability in CD-1 mouse liver microsomes assessed as half life by HPLC-MS/MS analysis. The format is ADME, Microsome.
Data set [6] is described as follows: Metabolic stability in human liver S9 fraction assessed as half life by HPLC-MS/MS analysis. Format: ADME, subcellular.
Data set [7] has as its system Chikungunya virus. The data set is described as follows: Antiviral activity against CHIKV S27 in green monkey Vero 76 cells assessed as reduction in virus yield measured after 3 days by Virus yield reduction assay. The format is functional. Conditions: S27, Vero 76, 72 h, time 3 day.
Data set [8] addresses Polyprotein P1234 (Chikungunya virus (strain S27-African prototype) (CHIKV)) (UniProt Q8JUX6). Conditions: dose 0.27-600 µM, time 2000-8000 sec.
Data set [9] has the same target.
The nature of data set [10]: Metabolic stability in human liver microsomes assessed as intrinsic clearance by HPLC-MS/MS analysis. Format: ADME, Microsome. On the technique in general: Microsomes from liver hold many membrane-bound enzymes, among them those of drug oxidation.
For data set [11], the target named is Polyprotein P1234 (Chikungunya virus (strain S27-African prototype) (CHIKV)) (UniProt Q8JUX6). Conditions: dose 0.27-600 µM.
Data set [12] deals with Chikungunya virus. The data set is described as follows: Antiviral activity against CHIKV infected in C57BL/6 mouse assessed as footpad swelling at 300 mg/kg/day, ip measured after 6 days post infection presence of compound (reference value: 40.9+/-12.4). The format is functional. Conditions: time 6 day.
The subject of data set [13] is Chikungunya virus. Kind of data set: Antiviral activity against CHIKV infected in C57BL/6 mouse assessed as mouse survival at 300 mg/kg/day, ip measured after 6 days post infection after 4 hrs of last treatment. Format: functional, organism-based. Conditions: time 6.0 day.
Data set [14] relates to Chikungunya virus. Kind of data set: Antiviral activity against CHIKV infected in C57BL/6 mouse model assessed as virus titers at 100 mg/kg/day, ip measured after 6 days post infection presence of compound (reference value: 5.3+/0.3). The format is functional. Conditions: time 6 day.

Chain of Polyprotein P1234 (Chikungunya virus (strain S27-African prototype) (CHIKV)) (Q8JUX6 whole entry): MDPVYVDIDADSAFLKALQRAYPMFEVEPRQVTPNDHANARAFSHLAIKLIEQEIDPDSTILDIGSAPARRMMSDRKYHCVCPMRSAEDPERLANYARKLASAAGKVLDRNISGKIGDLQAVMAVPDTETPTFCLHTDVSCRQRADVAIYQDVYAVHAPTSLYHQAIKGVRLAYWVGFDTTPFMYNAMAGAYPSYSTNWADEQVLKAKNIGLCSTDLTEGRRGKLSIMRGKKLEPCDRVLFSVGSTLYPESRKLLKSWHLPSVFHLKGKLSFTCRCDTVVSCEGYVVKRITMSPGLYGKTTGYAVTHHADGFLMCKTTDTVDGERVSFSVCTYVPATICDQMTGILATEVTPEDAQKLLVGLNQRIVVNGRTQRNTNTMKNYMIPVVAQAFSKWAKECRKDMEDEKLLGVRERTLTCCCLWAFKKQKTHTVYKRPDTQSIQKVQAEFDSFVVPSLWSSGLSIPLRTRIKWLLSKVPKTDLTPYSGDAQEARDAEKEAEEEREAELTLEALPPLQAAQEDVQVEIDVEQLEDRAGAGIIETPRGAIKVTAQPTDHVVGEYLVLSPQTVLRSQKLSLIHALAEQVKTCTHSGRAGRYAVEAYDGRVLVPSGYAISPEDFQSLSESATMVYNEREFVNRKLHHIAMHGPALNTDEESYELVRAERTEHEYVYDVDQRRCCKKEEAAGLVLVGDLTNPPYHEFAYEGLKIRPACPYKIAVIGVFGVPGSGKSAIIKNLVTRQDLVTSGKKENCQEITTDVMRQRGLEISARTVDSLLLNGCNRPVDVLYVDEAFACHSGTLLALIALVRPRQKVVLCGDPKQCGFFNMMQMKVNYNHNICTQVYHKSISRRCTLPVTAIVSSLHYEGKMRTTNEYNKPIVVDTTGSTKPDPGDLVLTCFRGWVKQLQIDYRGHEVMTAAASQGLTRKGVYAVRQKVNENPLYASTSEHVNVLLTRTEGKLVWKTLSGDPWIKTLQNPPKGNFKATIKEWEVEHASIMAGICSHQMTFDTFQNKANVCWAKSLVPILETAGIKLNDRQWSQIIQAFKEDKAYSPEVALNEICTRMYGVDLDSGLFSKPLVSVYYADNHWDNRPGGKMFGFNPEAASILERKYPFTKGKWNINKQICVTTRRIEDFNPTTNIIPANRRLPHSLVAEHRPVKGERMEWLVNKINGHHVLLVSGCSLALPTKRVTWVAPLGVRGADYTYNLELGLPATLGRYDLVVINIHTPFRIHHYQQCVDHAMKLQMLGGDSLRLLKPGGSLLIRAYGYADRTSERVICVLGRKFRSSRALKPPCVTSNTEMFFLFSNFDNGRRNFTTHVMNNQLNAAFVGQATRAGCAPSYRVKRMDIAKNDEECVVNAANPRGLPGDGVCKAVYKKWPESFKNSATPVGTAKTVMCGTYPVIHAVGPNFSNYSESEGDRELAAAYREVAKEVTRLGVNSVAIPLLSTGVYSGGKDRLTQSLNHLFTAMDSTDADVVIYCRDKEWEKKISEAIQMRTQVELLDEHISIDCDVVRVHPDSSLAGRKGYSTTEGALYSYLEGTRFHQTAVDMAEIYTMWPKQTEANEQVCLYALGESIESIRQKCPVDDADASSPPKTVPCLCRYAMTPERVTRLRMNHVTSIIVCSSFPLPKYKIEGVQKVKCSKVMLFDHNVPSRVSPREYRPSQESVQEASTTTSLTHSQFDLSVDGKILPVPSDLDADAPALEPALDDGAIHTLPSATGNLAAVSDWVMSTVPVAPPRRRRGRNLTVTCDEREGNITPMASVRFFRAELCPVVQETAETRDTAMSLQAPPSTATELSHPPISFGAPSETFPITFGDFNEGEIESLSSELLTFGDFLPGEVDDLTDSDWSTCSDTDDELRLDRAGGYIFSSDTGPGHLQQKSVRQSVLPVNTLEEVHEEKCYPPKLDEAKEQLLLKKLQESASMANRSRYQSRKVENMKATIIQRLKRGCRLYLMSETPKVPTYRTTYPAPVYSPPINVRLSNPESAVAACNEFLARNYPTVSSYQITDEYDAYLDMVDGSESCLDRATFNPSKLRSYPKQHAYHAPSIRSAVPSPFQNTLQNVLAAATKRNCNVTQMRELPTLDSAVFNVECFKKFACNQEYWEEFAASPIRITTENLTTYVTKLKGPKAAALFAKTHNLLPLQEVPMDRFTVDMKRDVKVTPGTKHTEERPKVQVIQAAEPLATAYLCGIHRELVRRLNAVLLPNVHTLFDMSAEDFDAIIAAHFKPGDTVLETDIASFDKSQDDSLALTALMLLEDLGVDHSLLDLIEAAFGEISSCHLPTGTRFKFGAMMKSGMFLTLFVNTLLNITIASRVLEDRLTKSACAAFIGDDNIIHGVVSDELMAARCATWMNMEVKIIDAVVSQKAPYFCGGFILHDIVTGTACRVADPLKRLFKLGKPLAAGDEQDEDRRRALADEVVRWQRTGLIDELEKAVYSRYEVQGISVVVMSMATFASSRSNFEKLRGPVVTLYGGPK

One may read the EC50 as the concentration that produces a half-maximal response. The term CC50 denotes the concentration at which the toxic effect on the cells reaches its halfway point. Take `COC(=O)/C=C/CNC(=O)c1cccc2c1NCCC2`: in the data set on Chikungunya virus [1], the EC50 was more than 50 µM. For the same compound, in data set [2], the CC50 was more than 50 µM.
Regarding `CC1=CC(C)(C)Nc2c(C(=O)N[C@@H](C)/C=C/S(C)(=O)=O)cccc21`, the EC50 in the data set on Chikungunya virus [1] worked out at 4.4 µM. Moreover, in data set [2], the CC50 was more than 50 µM. In [3], the selectivity ratio is more than 11.
`CC1=CC(C)(C)Nc2c(C(=O)NC/C=C/S(C)(=O)=O)cccc21`: in the data set with Chikungunya virus [1], the EC50 was determined as 23 µM. In addition, the CC50 in [2] was 39 µM.
As for `COC(=O)/C=C/CNC(=O)c1cccc2ccc(C)nc12`, in the data set on Chikungunya virus [1], the half-maximal effective concentration (EC50) was more than 34 µM. The CC50 in data set [2] was 34 µM.
A word on the EC90: it is the point of the concentration-response curve where the effect stands at 90%. Consider `CC1CCc2cccc(C(=O)NC/C=C/S(C)(=O)=O)c2N1` (stereo not given), for which the CLH in data set [4] was less than 19.3 µL/min/mg; in [10], less than 57.8 µL/min/mg. In addition, the t1/2 in data set [5] is 1.356 h; in [6], more than 2 h. The EC90 in the data set on Chikungunya virus [7] came out at 1.5 µM. Moreover, the half-maximal effective concentration (EC50) with Chikungunya virus [1] was 0.23 µM. In addition, in data set [8], the TDI result was “Active”. In addition, in [9], the Ratio (10^-6 microM/s) amounted to 35.8. In data set [2], the CC50 is more than 50 µM. In addition, the inhibition entry in data set [11] was “Dose-Dependent Effect”. For the same compound, in [3], the selectivity ratio was more than 220.
With `NC(=O)c1nc(F)cnc1O`, the Activity with Chikungunya virus [12] came to 32.6%; with Chikungunya virus [14], 5.1. Also, the Survival entry in the data set with Chikungunya virus [13] was “Active”.
Take `COC(=O)/C=C/CNC(=O)c1ccccc1Nc1ccccc1`: the concentration for a half-maximal effect (EC50) in the data set on Chikungunya virus [1] is more than 38 µM. The 50% cytotoxic concentration (CC50) in data set [2] is 38 µM.
The like results for `COC(=O)/C=C/CNC(=O)c1cccc2c1NC(C)(C)C=C2C` were, in that order, more than 22 µM and more than 22 µM.
As to `CS(=O)(=O)/C=C/[C@H](Cc1ccccc1)NC(=O)c1cccc2cccnc12`, the EC50 in the data set on Chikungunya virus [1] is more than 50 µM. Also, in data set [2], the CC50 was more than 50 µM.
Turning to `COC(=O)/C=C/CNC(=O)c1cccc2cccnc12`, the EC50 with Chikungunya virus [1] was more than 50 µM. Further, the half-maximal cytotoxic concentration (CC50) in [2] was more than 50 µM.
On to `COC(=O)/C=C/CNC(=O)c1cc(C)cc2c1NC(C)(C)C=C2C`, for which the EC50 in the data set with Chikungunya virus [1] was more than 43 µM. Further, the CC50 in data set [2] is more than 43 µM.
`CC1CC(C)(C)Nc2c(C(=O)NC/C=C/S(C)(=O)=O)cccc21` (stereo not given): the EC50 in the data set with Chikungunya virus [1] is 25 µM. The CC50 in data set [2] is more than 50 µM. Moreover, the selectivity ratio in [3] was more than 2.
As for `COC(=O)CCCNC(=O)c1cccc2c1NC(C)(C)CC2C` (stereo not given), the EC50 in the data set on Chikungunya virus [1] is more than 50 µM. Moreover, the CC50 in data set [2] is more than 50 µM.
As for `COC(=O)/C=C/CNC(=O)c1c[nH]c2ccc(Br)cc12`, the EC50 in the data set on Chikungunya virus [1] was 3.1 µM. In addition, in data set [2], the half-maximal cytotoxic concentration (CC50) came out at 16 µM.
